PubChem BioAssay (NCI)
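In this assay, cells in 96-well plates receive the compound at five concentrations for 48 hours. Endpoints are linearly interpolated between the surrounding concentrations. TGI marks complete inhibition of growth.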

Experiments:
Assay in all cases: NCI anticancer screen, dose series, 48 h
PC-3 prostate = system: PC-3 prostate
786-0 renal = system: 786-0 renal
ACHN renal = system: ACHN renal
SK-MEL-5 melanoma = system: SK-MEL-5 melanoma
SNB-19 CNS = system: SNB-19 CNS
HS 578T breast = system: HS 578T breast
NCI-H522 lung = system: NCI-H522 lung
HOP-62 NSCLC = system: HOP-62 NSCLC
SK-MEL-2 melanoma = system: SK-MEL-2 melanoma
COLO 205 colon = system: COLO 205 colon

Compound	TGI (PC-3 prostate) [µM]	TGI (786-0 renal) [µM]	TGI (ACHN renal) [µM]	TGI (SK-MEL-5 melanoma) [µM]	TGI (SNB-19 CNS) [µM]	TGI (HS 578T breast) [µM]	TGI (NCI-H522 lung) [µM]	TGI (HOP-62 NSCLC) [µM]	TGI (SK-MEL-2 melanoma) [µM]	TGI (COLO 205 colon) [µM]
Nc1ccc(Oc2ccc(C34CC5CC(C3)CC(c3ccc(Oc6ccc(N)c(O)c6)cc3)(C5)C4)cc2)cc1O	5.69	> 46	3.5	4.37	7.5	4.97	3.33	12	5.1	2.85
CN1CN(c2ccccc2)C2(CCN(C(=O)OC(C)(C)C)CC2)C1=O	> 100	> 100	> 100	> 100	> 100	> 100	> 100	> 100	> 100	> 100
Cc1ccc(S(=O)(=O)N(CC(O)COc2ccccc2)c2ccccc2Cl)cc1 (stereo not given)	30.8	32.4	33.7	27.8	39.5	26.4	25.1	34.8	27	34
Cc1ccnc2[nH]c(-c3ccc(Cl)cc3)cc(=O)c12	> 100	> 100	> 100	> 100	> 100	> 100	> 100	> 93.5	> 100	> 21.9
CC(C)(C)c1ccc(OCCOc2ccc(C(C)(C)C)cc2NC=O)c(NC=O)c1	> 100	37.8	> 73.2	15.3	> 100	42.8	24.4	28	36.6	4.33
O=C(NC12CC3CC(CC(C3)C1)C2)n1cnc2c(Cl)ncnc21	66.6	> 100	50.8	53.5	> 100	97.7	97.5	> 100	80.7	32.6
COc1cc(/C=[N+](\[O-])c2ccccc2Cl)ccc1OC(=S)S	> 100	> 100	> 100	38.2	> 100	> 100	> 100	> 100	> 100	51
CCOP(=O)(OCC)C(Cc1cn(S(=O)(=O)c2ccc(C)cc2)cn1)C(=O)O (stereo not given)	> 100	> 100	> 100	> 100	> 100	> 100	> 100	> 100	> 100	> 100
COC(=O)[C@@]1(Cc2ccc(OC(C)=O)cc2)Cc2cc3ccccc3n2N1	> 100	> 100	> 100	37.1	> 100	> 100	> 100	> 100	52.2	92.7
CCc1c[n+]2c(cc1C1=CN3c4ccccc4[C@]45CCN6C/C(=C/CO)[C@H](C[C@H]64)[C@@H]([C@@H]1O)[C@H]35)-c1[nH]c3ccccc3c1CC2	> 50	> 50	> 50	> 50	> 50	> 50	> 50	> 50	> 50	> 50
COc1c(C(=O)CC2c3c(cc4oc(C)cc(=O)c4c3OC)OC(=N)C2c2nc3ccccc3[nH]2)c(O)c(OC)c2occc12 (stereo not given)	> 100	> 100	> 100	> 100	> 100	> 100	> 100	> 100	> 100	> 100
N#Cc1ccccc1C#C/C=C\C#Cc1ccccn1	40.6	41.9	> 100	12.9	69.3	38.3	36.7	41.4	33.3	73.5
CC(=O)[C@H]1CC[C@@H]2[C@]1(C)CC=C1[C@]23C=C[C@]2(C[C@@H](O)CC[C@]12C)C(C(=O)O)C3C(=O)O (stereo not given in full)	> 100	> 100	> 100	> 100	> 100	> 100	> 100	> 100	> 100	> 100
Cn1c(SCc2ccc([N+](=O)[O-])cc2)nnc1C12CC3CC(CC(C3)C1)C2	> 10	> 10	> 10	> 10	> 10	> 10	> 10	> 10	> 10	> 10
C=C1C(O)C2OC(=O)C(=C)C2C(OC(=O)/C(C)=C/C)CC2(C)OC2C2OC12 (stereo not given)	54.4	42.5	15.5	> 100	> 100	> 100	15.6	> 100	38.4	31.4
C#CCn1c(=O)c2cc(OC)c(OC)cc2n(CC#C)c1=O	> 10	> 10	> 10	> 10	> 10	> 10	> 10	> 10	> 10	> 10
O=C(O)Cn1cnc2c(=O)[nH]c(Nc3ccccc3)nc21	> 100	> 100	> 100	> 100	> 100	> 100	> 100	> 100	> 100	> 100
COc1ccc2nc3c(nc2c1)C(C)(C)C=C3c1ccc(Br)cc1	> 100	> 100	> 100	> 100	> 100	> 100	> 100	> 100	> 100	> 100
CN(C)CCNC(=O)c1cccc2c(NC(CCCN=C(N)N)C(=O)O)c3ccccc3nc12 (stereo not given)	> 100	> 100	> 100	> 100	47	33.2	29.5	90.8	38.4	> 100
Cc1cc2nc3c(C)c4ccccc4c(C)n3c2cc1C	> 10	6.62	> 10	> 10	> 10	> 10	> 10	> 10	> 10	> 10
COC(=O)c1cc(NC(=O)Cn2c3ccccc3c3ccccc32)cn1C	> 100	72.2	> 100	> 100	> 100	42.4	> 100	50.6	> 100	> 100
Clc1ccc(CCNCCNC2(c3cc4ccccc4s3)CCCCC2)cc1Cl	3.11	3.65	3.1	3.12	3.83	4.52	3.37	2.6	3.2	2.99
CNC(=O)/C(C#N)=C(\N)N1CCCC1	> 100	> 100	> 100	> 100	> 100	> 100	> 100	> 100	> 100	> 100
CC(=O)OC1CC[C@@]2(C)C(=CC[C@@H]3[C@@H]2CC[C@]2(C)Nc4c(cnn4-c4ccc(F)cc4)C[C@@H]32)C1 (stereo not given in full)	> 100	> 59.2	> 100	> 93.9	> 100	> 100	> 100	17.8	> 73.6	> 78.7
Nc1nc(Cl)cc(Oc2ccc(Cl)cc2)n1	> 100	> 100	> 100	> 100	> 100	> 100	> 72.8	> 100	> 100	> 100
COc1cc([C@@H]2c3cc4c(cc3[C@H](OC3OC5COC(C(C)C)OC5C(O)C3O)C3COC(=O)[C@@H]32)OCO4)cc(OC)c1OC (stereo not given in full)	22.4	12.5	21.2	20.4	> 40.6	> 30.9	17.7	25.4	25.4	14.6
